Source: ChEMBL document CHEMBL3881522, “Interaction inhibitors of TCF-4 with Beta-catenin” (2004)
Activity calls are given as the source filed them. No cut-off for these calls is given here.

Target: TCF4/beta-catenin (Homo sapiens) (UniProt P35222+Q9NQB0)
Assay: Inhibition of TCF-4 ( 1 to 56 residues) (unknown origin) binding to beta-catenin/armadillo (unknown origin) at 50 uM by ITC assay
Type: protein-complex assay

SMILES | inhibition
COc1cccc2c1CCc1sc(N(CCOC(C)CCc3ccccc3)C(C)=O)nc1-2 (centres undefined) | Active
Cc1cc(NC(=O)c2ccc(Oc3ccccc3)cc2)on1 | Active
Cc1cc(NC(=O)NC(=O)c2nnc(-c3ccccc3)o2)no1 | Active
Cc1cc(CNC(=O)/C=C2\C(=O)N(c3ccncc3)c3ccccc32)on1 | Active
Cc1ccc(/C(=N\NC(=O)c2ccccc2Nc2ccccc2)c2ccccc2)o1 | Active
CS(=O)(=O)N(CCOCCc1ccccc1)c1nc2c([nH]1)CCc1ccccc1-2 | Active
Cc1ccc(C(=O)N2CCN(C(c3ccccc3)c3ccccc3)CC2)s1 | Active
C/C(=N\NC(=O)COc1ccccc1)c1ccc(C)s1 | Active
Cc1ccc(/C=N/Nc2cc(C(=O)NCCc3ccccc3)cc3c2CCc2ccncc2-3)o1 | Active
Cc1cc(NC(=O)c2c(O)cc(Oc3ccccc3)oc2=O)on1 | Active
CC(=O)N(CCCC(C)c1ccccc1)c1nc2c(s1)CCc1ccccc1-2 (centres undefined) | Active
CS(=O)(=O)N(CCCCOc1ccccc1)c1nc2c(s1)CCc1ccccc1-2 | Active
Cc1ccc(CNC(=O)/C=C2\C(=O)N(c3ccncc3)c3ccccc32)o1 | Active
Nc1n[nH]c(CC2CN(c3ccc(N4CCNCC4)c(Cl)c3)C(=O)N2)n1 (centres undefined) | Active
Cc1ccc(NC(=O)c2c(O)cc(-c3ccccc3)oc2=O)o1 | Active
O=C(Nc1nnc(Br)o1)c1c(O)cc(-c2ccccc2)oc1=O | Active
Cc1ccc(-c2ccc3ccc(Oc4ccncc4)cc3c2)o1 | Active
O=C(c1ccc(Br)o1)N1CCN(C(c2ccccc2)c2ccccc2)CC1 | Active
Cc1nnc(-c2sc3nc(-c4ccc(Cl)cc4)nn3c2C)o1 | Active
Cc1ccc(CCc2ccc3[nH]c(-c4cccs4)cc3c2)o1 | Active

SMILES | inhibition
Cc1cc(-c2onc(C)c2COC(=O)Nc2ccccc2)no1 | Active
Cc1ccc(/C=N/NC(=O)c2ccccc2Oc2ccccc2)o1 | Active
Cc1cc(/C(=C\c2ccccc2)c2ccc(OCCN3CCCC3)cc2)on1 | Active
Cc1ccc(/C=N/c2cccc3c(-c4ccncc4)ccnc23)o1 | Active
C/C(=N\NC(=O)OCc1ccccc1)c1cc(C)cs1 | Active
Cc1ccc(/C=C/c2ccc3[nH]c(-c4ccco4)cc3c2)o1 | Active
O=S(=O)(c1ccc(OCc2cnc(Cl)s2)cc1)N1CCOCC1 | Active
Cc1ccc(/C=N/n2c(=O)n(-c3ccncc3)c(=O)c3ccccc32)o1 | Active
Cc1ccc(/C(=N\NC(=O)c2ccccc2Oc2ccccc2)c2ccccc2)s1 | Active
Oc1nnc(CCCc2ccc(Oc3ccccc3)cc2)o1 | Active
Cc1ccc(COc2ccccc2C=C2CCN(S(=O)(=O)c3ccncc3)CC2)o1 | Active
Cc1ccc(/C=N/N=C2\C(=O)N(c3ccncc3)c3ccccc32)o1 | Active
O=c1oc(-c2ccccc2)cc(O)c1/C=C/c1nnc(Br)o1 | Active
Cc1ccc(/C(=N\NC(=O)c2ccccc2Oc2ccccc2)c2ccccn2)o1 | Active
Cc1ccc(Nc2cccc(-c3ccccc3Oc3ccccc3)c2)o1 | Active
O=C(c1ccncc1)N1CCC(=Cc2ccccc2OCc2ccc(Br)o2)CC1 | Active
O=C(CCNS(=O)(=O)c1ccccc1)NNS(=O)(=O)Cc1ccc(Cl)s1 | Active
Nc1n[nH]c(CC2CN(c3ccc(N4CCOCC4)c(F)c3)C(=O)O2)n1 (centres undefined) | Active
Cc1ccc(CCc2ccc3[nH]c(-c4ccco4)cc3c2)o1 | Active
